Each block holds one molecule with its values, some of them ahead of it. Non-standard residues stand in square brackets, D forms with d. Residues, ends and D or L forms follow the SMILES beside them. *: point of attachment. Biotin = O=C1N[C@H]2[C@H](CS[C@H]2CCCCC(=O)*)N1; pS = N[C@@H](COP(=O)(O)O)C(=O)O; Ahx = NCCCCCC(=O)O
Assays:
[1] = system: Murine bone marrow stromal cell (BMSCs) cultures; experiment: Bone marrow stromal cell mineralization assay (alizarin red staining); type: cell-based, mice
Experimental: The epiphyses of the bones from wild type (“WT”) and HYP mice were removed, and whole marrow was flushed from the diaphyses by centrifugation at 11500 rpm for 30 seconds in standard culture medium, which consisted of α-MEM (Mediatech Inc, Herndon Va., USA) supplemented with 10% FBS (Mediatech Inc, Herndon Va., USA), 10 U/ml penicillin/100 ug/ml streptomycin. The supernatant was removed, and the cell pellet was resuspended in fresh standard medium. The resuspended cells were plated in standard 25 cm^2 flasks and allowed to grow until confluence. The cells were passaged with 0.25% trypsin and 0.02% EDTA (Sigma Aldrich, Saint Louis, Mo., USA). Cells were plated on 24-well plastic culture plates at a concentration of 10×10^4 cells/well. Starting 72 hours after seeding (referred to as Day 0) nonadherent cells were discarded, and the medium was changed to one that supports osteoblast differentiation, that is, standard media plus 10 mM B glycerophosphate (Sigma Aldrich, Saint Louis, Mo., USA) and 50 mg/liter ascorbic acid (Sigma Aldrich, Saint Louis, Mo., USA). […] For quantification of staining, 500 μL 10% (v/v) acetic acid was added to each well, and the plate was incubated at room temperature for 30 min. with shaking. […] 150 μL aliquots of the supernatant were read in triplicate at 450 nm in 96-well format using opaque-walled, transparent-bottomed plates.

PHEX = target: T1, PHEX (Homo sapiens, UniProt P78562); experiment: Surface plasmon resonance: PHEX analyte binding to immobilized biotinylated ASARM-PO4; details: immobilized biotinylated ASARM-PO4, soluble PHEX analyte, FIG. 4(A); read-out: kinetics of binding
T1 sequence (P78562 46-749 limits assumed): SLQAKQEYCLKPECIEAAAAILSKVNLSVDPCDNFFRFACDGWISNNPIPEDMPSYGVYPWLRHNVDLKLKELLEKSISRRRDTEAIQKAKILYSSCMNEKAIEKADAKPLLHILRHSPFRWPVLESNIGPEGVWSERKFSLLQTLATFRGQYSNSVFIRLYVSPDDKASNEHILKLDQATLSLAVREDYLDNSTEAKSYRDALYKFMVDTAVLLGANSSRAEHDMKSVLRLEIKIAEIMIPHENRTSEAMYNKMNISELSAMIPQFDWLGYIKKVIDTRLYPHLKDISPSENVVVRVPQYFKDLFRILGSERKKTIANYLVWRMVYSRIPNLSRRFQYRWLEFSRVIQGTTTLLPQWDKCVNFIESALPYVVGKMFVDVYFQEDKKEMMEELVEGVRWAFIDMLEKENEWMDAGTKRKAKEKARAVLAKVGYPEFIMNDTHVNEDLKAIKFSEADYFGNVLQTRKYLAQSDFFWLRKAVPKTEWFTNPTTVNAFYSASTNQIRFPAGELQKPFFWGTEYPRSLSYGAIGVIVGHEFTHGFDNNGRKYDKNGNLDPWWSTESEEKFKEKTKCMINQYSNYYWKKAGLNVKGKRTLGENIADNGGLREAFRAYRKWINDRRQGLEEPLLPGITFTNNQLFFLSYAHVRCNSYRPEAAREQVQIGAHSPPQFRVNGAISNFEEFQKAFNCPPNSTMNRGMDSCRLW
Experimental: A Biacore 3000 SPR instrument in conjunction with CM5 research grade chips was used to conduct the surface Plasmon Resonance (SPR) experiments (Biacore, Piscataway, N.J.) as previously described (Rowe et al., Bone 36:33-46 (2005)). The experiments were performed at 25° C. using Biacore buffer (10 mM HEPES pH 7.4, 150 mM NaCl, 0.005% surfactant P20) supplemented with 2 mM ZnCl2 (HBS-P-Zn) or without ZnCl2 (HBS-P) as indicated. Samples were injected at a flow rate of 5 ul/min. The surfaces of research grade CM5 chips were activated by a 6-min. injection of a solution containing 0.2 M N-ethyl-N9-(dimethylaminopropyl) carbodiimide and 0.05 M N-hydroxy-succinimide. Neutravidin (Pierce) was then immobilized on the same chip (ligands) in all four flow-cells using amine coupling chemistry. One neutravidin surface was left blank as a negative control. Biotinylated peptides (including biotinylated ASARM-PO4 peptide) were then added and captured on other individual flow-cells. […] The experiments were repeated on two different chips and immobilized peptides measured as surface plasmon response units as previously described (Rowe et al., Bone 36:33-46 (2005)). The response unit or RU is a measure of surface charge density oscillation and surface […] generation as detected by changes in incident refractive index monitored by the Biacore optical unit. […]

Molecule: NH2-RDDSSESSDSGS(PO3H2)SS(PO3H2)ES(PO3H2)DGD-OH (H-RDDSSESSDSG[pS]S[pS]E[pS]DGD-OH; listed as Homo sapiens) [ASARM-PO4]
- mineralization (alizarin red) ([1]; BMSC cultures supplemented with 5 μM ASARM-PO4 alone): marked and statistically significant inhibition of mineralization

- Kd (PHEX): 0.168 µM
Molecule: N=C(N)NCCC[C@H](NC(=O)CCCCCNC(=O)CCCC[C@@H]1SC[C@@H]2NC(=O)N[C@@H]21)C(=O)N[C@@H](CC(=O)O)C(=O)N[C@@H](CC(=O)O)C(=O)N[C@@H](CO)C(=O)N[C@@H](CO)C(=O)N[C@@H](CCC(=O)O)C(=O)N[C@@H](CO)C(=O)N[C@@H](CO)C(=O)N[C@@H](CC(=O)O)C(=O)N[C@@H](CO)C(=O)NCC(=O)N[C@@H](COP(=O)(O)O)C(=O)N[C@@H](CO)C(=O)N[C@@H](COP(=O)(O)O)C(=O)N[C@@H](CCC(=O)O)C(=O)N[C@@H](COP(=O)(O)O)C(=O)N[C@@H](CC(=O)O)C(=O)NCC(=O)N[C@@H](CC(=O)O)C(=O)O [biotinylated-ASARM-PO4] ({Biotin-Ahx}-RDDSSESSDSG[pS]S[pS]E[pS]DGD-OH)

Molecule: NH2-LKGDHSGGNGNYTGLDYNIPGYFRSTIPFHGEVDKENVAR-OH (H-LKGDHSGGNGNYTGLDYNIPGYFRSTIPFHGEVDKENVAR-OH; listed as Homo sapiens) [SPR5]
- mineralization (alizarin red) ([1]; BMSC cultures supplemented with 10 μM peptide alone): mineralization occurs with great efficiency
